# Reference: patent publication EP4389751A1, “HETEROCYCLIC COMPOUNDS AND USES THEREOF” (Kumquat Biosciences Inc., priority 2021, dated 2024)
# Molecular target: T1, KRAS protein (His-tagged GDP-loaded G12S 1-169) (Homo sapiens, UniProt P01116, G12S)
# T1 construct: His-tagged GDP-loaded G12S 1-169
# Assay: Covalent modification of KRAS protein, intact-protein LC-MS
# Type: binding
# Settings: 24-hour treatment; compound pairs differ only at R^6 (warhead)
# Outline: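 His-tagged GDP-loaded KRAS 1-169 (~2 µM) incubated with compound 24 h at room temperature, then quenched with formic acid. Intact-protein LC-ESI-MS on C4 column; deconvoluted peak intensities of unmodified and adducted protein give percent covalent modification.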
row,Compound,K-Ras12S engagement after 24-hour treatment
1,"N#CCc1ncn(C(=O)N2CC3(C2)CN(c2nc(OC[C@@]45CCCN4C[C@H](F)C5)nc4c(F)c(-c5ccc(F)c6sc(N)c(C#N)c56)c(Cl)cc24)CCO3)n1 [Compound A110, 2-amino-4-(6-chloro-4-(2-(3-(cyanomethyl)-1H-1,2,4-triazole-1-carbonyl)-5-oxa-2,8-diazaspiro[3.5]nonan-8-yl)-8-fluoro-2-(((2R,7aS)-2-fluorotetrahydro-1H-pyrrolizin-7a(5H)-yl)methoxy)quinazolin-7-yl)-7-fluorobenzo[b]thiophene-3-carbonitrile]",+++ (+++: indicates equal to or greater than 20% labelling)
2,"N#Cc1cn(C(=O)N2C3CCC2CN(c2nc(OC[C@@]45CCCN4C[C@H](F)C5)nc4c(F)c(-c5ccc(F)c6sc(N)nc56)c(Cl)cc24)C3)cn1 [Compound A123, 1-(3-(7-(2-amino-7-fluorobenzo[d]thiazol-4-yl)-6-chloro-8-fluoro-2-(((2R,7aS)-2-fluorotetrahydro-1H-pyrrolizin-7a(5H)-yl)methoxy)quinazolin-4-yl)-3,8-diazabicyclo[3.2. 1]octane-8-carbonyl)-1H-imidazole-4-carbonitrile]",++ (++: indicates between 1% to 20% labelling)
3,"Nc1nc2c(-c3c(Cl)cc4c(N5CCN(C(=O)n6cncn6)CC(F)(F)C5)nc(OC[C@@]56CCCN5C[C@H](F)C6)nc4c3F)ccc(F)c2s1 [Compound A141, (4-(7-(2-amino-7-fluorobenzo[d]thiazol-4-yl)-6-chloro-8-fluoro-2-(((2R,7aS)-2-fluorotetrahydro-1H-pyrrolizin-7a(5H)-yl)methoxy)quinazolin-4-yl)-6,6-difluoro-1,4-diazepan-1-yl)(1H-1,2,4-triazol-1-yl)methanone]",+++ (+++: indicates equal to or greater than 20% labelling)

# Same assay, conditions: 24hrs at room temperature, KRAS protein ~2 µM
row,Compound,% G12S Modification at 24 hr.
1,"Cc1ncn(C(=O)N2CC3(CCCN(c4nc(OC[C@@]56CCCN5C[C@H](F)C6)nc5c(F)c(-c6ccc(F)c7sc(N)c(C#N)c67)c(Cl)cc45)C3)C2)n1 [Compound A102, 2-amino-4-(6-chloro-8-fluoro-2-(((2R,7aS)-2-fluorotetrahydro-1H-pyrrolizin-7 a(5H)-yl)methoxy)-4-(2-(3-methyl-1H-1,2,4-triazole-1-carbonyl)-2,6-diazaspiro[3.5]nonan-6-yl)quinazolin-7-yl)-7-fluorobenzo[b]thiophene-3-carbonitrile]",+++ (+++ indicates greater than 20% labelling)
2,"N#CCc1ncn(C(=O)N2CC3(C2)CN(c2nc(OC[C@@]45CCCN4C[C@H](F)C5)nc4c(F)c(-c5ccc(F)c6sc(N)c(C#N)c56)c(Cl)cc24)CCO3)n1 [Compound A110, 2-amino-4-(6-chloro-4-(2-(3-(cyanomethyl)-1H-1,2,4-triazole-1-carbonyl)-5-oxa-2,8-diazaspiro[3.5]nonan-8-yl)-8-fluoro-2-(((2R,7aS)-2-fluorotetrahydro-1H-pyrrolizin-7a(5H)-yl)methoxy)quinazolin-7-yl)-7-fluorobenzo[b]thiophene-3-carbonitrile]",+++ (+++ indicates greater than 20% labelling)
3,"COCCN1CCC(Oc2nc(N3CCCCC4(CN(C(=O)n5cncn5)C4)C3)c3cc(Cl)c(-c4ccc(F)c5sc(N)c(C#N)c45)c(F)c3n2)CC1 [Compound A119, 4-(4-(2-(1H-1,2,4-triazole-1-carbonyl)-2,6-diazaspiro[3.6]decan-6-yl)-6-chloro-8-fluoro-2-((1-(2-methoxyethyl)piperidin-4-yl)oxy)quinazolin-7-yl)-2-amino-7-fluorobenzo[b]thiophene-3-carbonitrile]",+++ (+++ indicates greater than 20% labelling)
4,"N#Cc1cn(C(=O)N2C3CCC2CN(c2nc(OC[C@@]45CCCN4C[C@H](F)C5)nc4c(F)c(-c5ccc(F)c6sc(N)nc56)c(Cl)cc24)C3)cn1 [Compound A123, 1-(3-(7-(2-amino-7-fluorobenzo[d]thiazol-4-yl)-6-chloro-8-fluoro-2-(((2R,7aS)-2-fluorotetrahydro-1H-pyrrolizin-7a(5H)-yl)methoxy)quinazolin-4-yl)-3,8-diazabicyclo[3.2. 1]octane-8-carbonyl)-1H-imidazole-4-carbonitrile]",++ (++ indicates between about 1%- 20% labelling)
5,"N#Cc1c(N)sc2c(F)ccc(-c3c(Cl)cc4c(N5CCCC6(CN(C(=O)n7cncn7)C6)C5)nc(OC[C@@]56CCCN5C[C@H](F)C6)nc4c3F)c12 [Compound A129, 4-(4-(2-(1H-1,2,4-triazole-1-carbonyl)-2,6-diazaspiro[3.5]nonan-6-yl)-6-chloro-8-fluoro-2-(((2R,7aS)-2-fluorotetrahydro-1H-pyrrolizin-7a(5H)-yl)methoxy)quinazolin-7-yl)-2-amino-7-fluorobenzo[b]thiophene-3-carbonitrile]",+++ (+++ indicates greater than 20% labelling)
6,"N#Cc1c(N)sc2c(F)ccc(-c3ncc4c(N5CCCC6(CN(C(=O)n7cncn7)C6)C5)nc(OC[C@@]56CCCN5C[C@H](F)C6)nc4c3F)c12 [Compound A134, 4-(4-(2-(1H-1,2,4-triazole-1-carbonyl)-2,6-diazaspiro[3.5]nonan-6-yl)-8-fluoro-2-(((2R,7aS)-2-fluorotetrahydro-1H-pyrrolizin-7a(5H)-yl)methoxy)pyrido[4,3-d]pyrimidin-7-yl)-2-amino-7-fluorobenzo[b]thiophene-3-carbonitrile]",+++ (+++ indicates greater than 20% labelling)
7,"Nc1nc2c(-c3c(Cl)cc4c(N5CCCC6(CN(C(=O)n7cncn7)C6)C5)nc(OC[C@@]56CCCN5C[C@H](F)C6)nc4c3F)ccc(F)c2s1 [Compound A136, (6-(7-(2-amino-7-fluorobenzo[d]thiazol-4-yl)-6-chloro-8-fluoro-2-(((2R,7aS)-2-fluorotetrahydro-1H-pyrrolizin-7a(5H)-yl)methoxy)quinazolin-4-yl)-2,6-diazaspiro[3.5]nonan-2-yl)(1H-1,2,4-triazol-1-yl)methanone]",+++ (+++ indicates greater than 20% labelling)
8,"CN1CCC[C@H]1COc1nc(N2CCOC3(CN(C(=O)n4cncn4)C3)C2)c2cc(Cl)c(-c3ccc(F)c4sc(N)c(C#N)c34)c(F)c2n1 [Compound A137, 4-(4-(2-(1H-1,2,4-triazole-1-carbonyl)-5-oxa-2,8-diazaspiro[3.5]nonan-8-yl)-6-chloro-8-fluoro-2-(((S)-1-methylpyrrolidin-2-yl)methoxy)quinazolin-7-yl)-2-amino-7-fluorobenzo[b]thiophene-3-carbonitrile]",+++ (+++ indicates greater than 20% labelling)
9,"Nc1nc2c(-c3c(Cl)cc4c(N5CCN(C(=O)n6cncn6)CC(F)(F)C5)nc(OC[C@@]56CCCN5C[C@H](F)C6)nc4c3F)ccc(F)c2s1 [Compound A141, (4-(7-(2-amino-7-fluorobenzo[d]thiazol-4-yl)-6-chloro-8-fluoro-2-(((2R,7aS)-2-fluorotetrahydro-1H-pyrrolizin-7a(5H)-yl)methoxy)quinazolin-4-yl)-6,6-difluoro-1,4-diazepan-1-yl)(1H-1,2,4-triazol-1-yl)methanone]",+++ (+++ indicates greater than 20% labelling)
10,"Nc1nc2c(-c3c(Cl)cc4c(N5CCN(C(=O)n6cncn6)CC5)nc(OC[C@@]56CCCN5C[C@H](F)C6)nc4c3F)ccc(F)c2s1 [Compound A146, (4-(7-(2-amino-7-fluorobenzo[d]thiazol-4-yl)-6-chloro-8-fluoro-2-(((2R,7aS)-2-fluorotetrahydro-1H-pyrrolizin-7a(5H)-yl)methoxy)quinazolin-4-yl)piperazin-1-yl)(1H-1,2,4-triazol-1-yl)methanone]",+++ (+++ indicates greater than 20% labelling)
11,"Cc1ncn(C(=O)N2CC3(C2)CN(c2nc(OC[C@@]45CCCN4C[C@H](F)C5)nc4c(F)c(-c5ccc(F)c6sc(N)c(C#N)c56)c(Cl)cc24)CCO3)n1 [Compound A148, 2-amino-4-(6-chloro-8-fluoro-2-(((2R,7aS)-2-fluorotetrahydro-1H-pyrrolizin-7 a(5H)-yl)methoxy)-4-(2-(3-methyl-1H-1,2,4-triazole-1-carbonyl)-5-oxa-2,8-diazaspiro[3.5]nonan-8-yl)quinazolin-7-yl)-7-fluorobenzo[b]thiophene-3-carbonitrile]",+++ (+++ indicates greater than 20% labelling)
12,"N#Cc1c(N)sc2c(F)ccc(-c3c(Cl)cc4c(N5CCC6C5CCCN6C(=O)n5cncn5)nc(OC[C@@]56CCCN5C[C@H](F)C6)nc4c3F)c12 (stereo partly drawn) [Compound A152, 4-(4-(4-(1H-1,2,4-triazole-1-carbonyl)octahydro-1H-pyrrolo[3,2-b]pyridin-1-yl)-6-chloro-8-fluoro-2-(((2R,7aS)-2-fluorotetrahydro-1H-pyrrolizin-7a(5H)-yl)methoxy)quinazolin-7-yl)-2-amino-7-fluorobenzo[b]thiophene-3-carbonitrile]",+++ (+++ indicates greater than 20% labelling)
13,"N#Cc1nccn1C(=O)N1C2CCC1CN(c1nc(OC[C@@]34CCCN3C[C@H](F)C4)nc3c(F)c(-c4ccc(F)c5sc(N)nc45)c(Cl)cc13)C2 [Compound A170, 1-(3-(7-(2-amino-7-fluorobenzo[d]thiazol-4-yl)-6-chloro-8-fluoro-2-(((2R,7aS)-2-fluorotetrahydro-1H-pyrrolizin-7a(5H)-yl)methoxy)quinazolin-4-yl)-3,8-diazabicyclo[3.2. 1]octane-8-carbonyl)-1H-imidazole-2-carbonitrile]",++ (++ indicates between about 1%- 20% labelling)
14,"N#Cc1c(N)sc2c(F)ccc(-c3c(Cl)cc4c(N5CCC6C5CN6C(=O)n5cncn5)nc(OC[C@@]56CCCN5C[C@H](F)C6)nc4c3F)c12 (stereo partly drawn) [Compound A183, 4-(4-(6-(1H-1,2,4-triazole-1-carbonyl)-2,6-diazabicyclo[3.2.0]heptan-2-yl)-6-chloro-8-fluoro-2-(((2R,7aS)-2-fluorotetrahydro-1H-pyrrolizin-7a(5H)-yl)methoxy)quinazolin-7-yl)-2-amino-7-fluorobenzo[b]thiophene-3-carbonitrile]",++ (++ indicates between about 1%- 20% labelling)
15,"Cc1nc(C)n(C(=O)N2CC3(COCCN(c4nc(OC[C@@]56CCCN5C[C@H](F)C6)nc5c(F)c(-c6ccc(F)c7sc(N)c(C#N)c67)c(Cl)cc45)C3)C2)n1 [Compound A185, 2-amino-4-(6-chloro-4-(2-(3,5-dimethyl-1H-1,2,4-triazole-1-carbonyl)-6-oxa-2,9-diazaspiro[3.6]decan-9-yl)-8-fluoro-2-(((2R,7aS)-2-fluorotetrahydro-1H-pyrrolizin-7a(5H)-yl)methoxy)quinazolin-7-yl)-7-fluorobenzo[b]thiophene-3-carbonitrile]",++ (++ indicates between about 1%- 20% labelling)
16,"Nc1nc2c(-c3c(Cl)cc4c(N5CCCN(C(=O)n6cncn6)CC5)nc(OC[C@@]56CCCN5C[C@H](F)C6)nc4c3F)ccc(F)c2s1 [Compound A191, (4-(7-(2-amino-7-fluorobenzo[d]thiazol-4-yl)-6-chloro-8-fluoro-2-(((2R,7aS)-2-fluorotetrahydro-1H-pyrrolizin-7a(5H)-yl)methoxy)quinazolin-4-yl)-1,4-diazepan-1-yl)(1H-1,2,4-triazol-1-yl)methanone]",+++ (+++ indicates greater than 20% labelling)
